{"source": "paper PMC8301423", "about": "“The Effects of Temperature and Pressure on Protein-Ligand Binding in the Presence of Mars-Relevant Salts” (Biology, 2021)", "target": "T1, bovine serum albumin (BSA) (Bos taurus, UniProt P02769)", "T1 construct": "BSA, molecular weight of 66 kDa, 583 residues; purchased Sigma Aldrich Chemicals (Taufkirchen, Germany)", "T1 sequence (P02769 25-607)": "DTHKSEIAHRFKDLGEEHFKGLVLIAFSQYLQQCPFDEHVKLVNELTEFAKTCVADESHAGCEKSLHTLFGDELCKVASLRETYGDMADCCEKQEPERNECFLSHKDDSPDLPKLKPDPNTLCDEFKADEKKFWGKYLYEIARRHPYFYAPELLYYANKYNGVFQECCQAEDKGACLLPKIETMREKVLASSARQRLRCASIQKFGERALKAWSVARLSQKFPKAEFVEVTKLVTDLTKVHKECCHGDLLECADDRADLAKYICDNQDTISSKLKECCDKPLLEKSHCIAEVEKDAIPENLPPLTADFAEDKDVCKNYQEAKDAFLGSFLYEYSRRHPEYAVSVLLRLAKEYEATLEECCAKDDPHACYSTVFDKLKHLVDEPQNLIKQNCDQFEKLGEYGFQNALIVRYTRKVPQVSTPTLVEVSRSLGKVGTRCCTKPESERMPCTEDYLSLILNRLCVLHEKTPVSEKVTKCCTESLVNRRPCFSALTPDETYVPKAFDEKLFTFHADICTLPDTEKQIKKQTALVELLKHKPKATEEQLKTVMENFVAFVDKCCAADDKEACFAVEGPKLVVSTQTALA", "assay": "High hydrostatic pressure fluorescence titration of ANS with BSA (1-2000 bar)", "format": "binding", "source_text": "The extent of complex formation between ANS and BSA was followed by means of steady-state fluorescence spectroscopy using a K2 fluorometer from ISS, Inc. (Champaign, IL, USA). The binding isotherms were obtained by recording ANS emission spectra by exciting the solutions at 350 nm and recording the emission intensities in the range 400–550 nm. The width slits of the excitation and emission monochromators were both set to 8 nm. Briefly, a series of solutions with a fixed concentration of ANS at ~5 µM were prepared, and the concentration of BSA was varied between 0 and ~40 µM. Then estimation of the binding constants (Kb) was performed by using a plot of ΔF = F − F0 (where F is the fluorescence intensity of ANS at the maximum in the presence of BSA, and F0 is the intensity of ANS in the absence of BSA) as a function of total BSA concentration and fitting the experimental data according to an equivalent and independent binding sites model or to two classes of non-equivalent and independent binding-site models, as described in detail in Reference.\nFor the pressure dependent measurements, the high-pressure cell system from ISS and quartz cuvettes were used. The pressure was controlled by means of a manual pump, and water was used as pressurizing fluid. A pressure range from 1 to 2000 bar was explored. The ANS and BSA solutions were mixed, vortexed, and then filled into the sample cell, which was sealed with DuraSeal^TM laboratory stretch film and placed into the high-pressure vessel. The stretch film allowed for the pressure transmission in the sample cuvette.\nIn the next step, we explored the impact of high hydrostatic pressure (HHP) on the binding of ANS to BSA in the presence of the three salts and in the temperature range between 5 and 25 °C. To this end, we performed the same titration experiments following the complex formation by means of HHP fluorescence spectroscopy.\nFrom the pressure dependence of the Kb values, the volume change upon binding, the protein–ligand binding volume ΔVb, can be determined (for an in-depth discussion of pressure effects on ligand binding, please refer to Reference and references therein):(1) [∂lnKb/∂p]T=−ΔVb/RT\nHere, [∂lnKb/∂p]T is the derivative of the logarithm of the binding constant (Kb) with respect to pressure (p) at constant temperature (T). R is the universal gas constant. ΔVb is the binding volume defined as the difference between the partial molar volume of the complex (PL, where P is the protein and L the ligand) and the sum of the partial molar volumes of the uncomplexed state (P+L). Thus, the binding volume can be directly estimated by taking the slope of a plot of lnKb vs. p, assuming that the volume change is independent of pressure in the (here rather small) pressure range covered.", "data": [{"smiles": "O=S(=O)(O)c1cccc2cccc(Nc3ccccc3)c12", "note": "[ANS, 8-anilinonaphthalene-1-sulfonic acid]", "values": [{"measurement": "Kd", "setting": "Binding constant Kb1, 250 mM MgCl2, 15 °C, 1 bar", "value": 2.78, "unit": "µM"}, {"measurement": "Kd", "setting": "Binding constant Kb1, 250 mM MgCl2, 15 °C, 500 bar", "value": 2.5, "unit": "µM"}, {"measurement": "Kd", "setting": "Binding constant Kb1, 250 mM MgCl2, 15 °C, 1000 bar", "value": 2.44, "unit": "µM"}, {"measurement": "Kd", "setting": "Binding constant Kb1, 250 mM MgCl2, 15 °C, 1500 bar", "value": 2.33, "unit": "µM"}, {"measurement": "Kd", "setting": "Binding constant Kb1, 250 mM MgCl2, 15 °C, 2000 bar", "value": 2.22, "unit": "µM"}, {"measurement": "Kd", "setting": "Binding constant Kb1, 250 mM MgCl2, 25 °C, 1 bar", "value": 0.204, "unit": "µM"}, {"measurement": "Kd", "setting": "Binding constant Kb1, 250 mM MgCl2, 25 °C, 500 bar", "value": 0.233, "unit": "µM"}, {"measurement": "Kd", "setting": "Binding constant Kb1, 250 mM MgCl2, 25 °C, 1000 bar", "value": 0.222, "unit": "µM"}, {"measurement": "Kd", "setting": "Binding constant Kb1, 250 mM MgCl2, 25 °C, 1500 bar", "value": 0.204, "unit": "µM"}, {"measurement": "Kd", "setting": "Binding constant Kb1, 250 mM MgCl2, 25 °C, 2000 bar", "value": 0.192, "unit": "µM"}, {"measurement": "Kd", "setting": "Binding constant Kb1, 250 mM MgSO4, 5 °C, 1 bar", "value": 1.61, "unit": "µM"}, {"measurement": "Kd", "setting": "Binding constant Kb1, 250 mM MgSO4, 5 °C, 500 bar", "value": 2.08, "unit": "µM"}, {"measurement": "Kd", "setting": "Binding constant Kb1, 250 mM MgSO4, 5 °C, 1000 bar", "value": 2.13, "unit": "µM"}, {"measurement": "Kd", "setting": "Binding constant Kb1, 250 mM MgSO4, 5 °C, 1500 bar", "value": 1.82, "unit": "µM"}, {"measurement": "Kd", "setting": "Binding constant Kb1, 250 mM MgSO4, 5 °C, 2000 bar", "value": 2.27, "unit": "µM"}, {"measurement": "Kd", "setting": "Binding constant Kb1, 250 mM MgSO4, 15 °C, 1 bar", "value": 2.56, "unit": "µM"}, {"measurement": "Kd", "setting": "Binding constant Kb1, 250 mM MgSO4, 15 °C, 500 bar", "value": 2.5, "unit": "µM"}, {"measurement": "Kd", "setting": "Binding constant Kb1, 250 mM MgSO4, 15 °C, 1000 bar", "value": 2.38, "unit": "µM"}, {"measurement": "Kd", "setting": "Binding constant Kb1, 250 mM MgSO4, 15 °C, 1500 bar", "value": 2.33, "unit": "µM"}, {"measurement": "Kd", "setting": "Binding constant Kb1, 250 mM MgSO4, 15 °C, 2000 bar", "value": 2.22, "unit": "µM"}, {"measurement": "Kd", "setting": "Binding constant Kb1, 250 mM MgSO4, 25 °C, 1 bar", "value": 0.345, "unit": "µM"}, {"measurement": "Kd", "setting": "Binding constant Kb1, 250 mM MgSO4, 25 °C, 500 bar", "value": 0.345, "unit": "µM"}, {"measurement": "Kd", "setting": "Binding constant Kb1, 250 mM MgSO4, 25 °C, 1000 bar", "value": 0.37, "unit": "µM"}, {"measurement": "Kd", "setting": "Binding constant Kb1, 250 mM MgSO4, 25 °C, 1500 bar", "value": 0.417, "unit": "µM"}, {"measurement": "Kd", "setting": "Binding constant Kb1, 250 mM MgSO4, 25 °C, 2000 bar", "value": 0.455, "unit": "µM"}, {"measurement": "Kd", "setting": "Binding constant Kb2, 250 mM Mg(ClO4)2, 5 °C, 1 bar", "value": 5.26, "unit": "µM"}, {"measurement": "Kd", "setting": "Binding constant Kb2, 250 mM Mg(ClO4)2, 5 °C, 500 bar", "value": 2.5, "unit": "µM"}, {"measurement": "Kd", "setting": "Binding constant Kb2, 250 mM Mg(ClO4)2, 5 °C, 1000 bar", "value": 2.94, "unit": "µM"}, {"measurement": "Kd", "setting": "Binding constant Kb2, 250 mM Mg(ClO4)2, 5 °C, 1500 bar", "value": 1.92, "unit": "µM"}, {"measurement": "Kd", "setting": "Binding constant Kb2, 250 mM Mg(ClO4)2, 5 °C, 2000 bar", "value": 1.52, "unit": "µM"}, {"measurement": "Kd", "setting": "Binding constant Kb2, 250 mM Mg(ClO4)2, 15 °C, 1 bar", "value": 7.69, "unit": "µM"}, {"measurement": "Kd", "setting": "Binding constant Kb2, 250 mM Mg(ClO4)2, 15 °C, 500 bar", "value": 6.67, "unit": "µM"}, {"measurement": "Kd", "setting": "Binding constant Kb2, 250 mM Mg(ClO4)2, 15 °C, 1000 bar", "value": 5.26, "unit": "µM"}, {"measurement": "Kd", "setting": "Binding constant Kb2, 250 mM Mg(ClO4)2, 15 °C, 1500 bar", "value": 4.76, "unit": "µM"}, {"measurement": "Kd", "setting": "Binding constant Kb2, 250 mM Mg(ClO4)2, 15 °C, 2000 bar", "value": 4.17, "unit": "µM"}, {"measurement": "Kd", "setting": "Binding constant Kb2, 250 mM Mg(ClO4)2, 25 °C, 1 bar", "value": 0.833, "unit": "µM"}, {"measurement": "Kd", "setting": "Binding constant Kb2, 250 mM Mg(ClO4)2, 25 °C, 500 bar", "value": 0.909, "unit": "µM"}, {"measurement": "Kd", "setting": "Binding constant Kb2, 250 mM Mg(ClO4)2, 25 °C, 1000 bar", "value": 0.833, "unit": "µM"}, {"measurement": "Kd", "setting": "Binding constant Kb2, 250 mM Mg(ClO4)2, 25 °C, 1500 bar", "value": 0.833, "unit": "µM"}, {"measurement": "Kd", "setting": "Binding constant Kb2, 250 mM Mg(ClO4)2, 25 °C, 2000 bar", "value": 1.12, "unit": "µM"}]}]}
